Source: PubChem BioAssay AID1963431 (Molecular Pharmacology Branch, DTP, NCI, 2024)
Values joined by “and” are separate entries in the source; they are usually repeats but may differ in a detail not shown here. Identical values can stand only once.

Tested on: Rh18 complex spheroid viability, percent test/control
Assay: Anticancer human tumor Rh18 cell line growth inhibition [Asc];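 further: spheroids exposed to compound for 7 days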;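 on viability, T/C: 100% = DMSO vehicle control wells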
Conditions: for viability, T/C: stronger effect = lower value
Description: Multicellular complex tumor spheroid response to apoptosis pathway targeting inhibitors Alrizomadlin, Pelcitoclax, and Dasminapant in combination with a variety of drugs and investigational agents in selected tumor cell lines
The MDM2 inhibitor alrizomadlin, the Bcl-2/Bcl-xL inhibitor pelcitoclax, and the IAPs inhibitor dasminapant were evaluated both individually and in combination with standard of care and investigational anticancer small molecules within a complex spheroid model of solid tumors. . Complex spheroids include a stromal component modeled by human endothelial cells (HUVEC) and fibroblasts modeled by human mesenchymal stem cells (MSCs). The concentration ranges selected for each drug and investigational agent were based upon clinically achievable concentrations if the clinical Cmax of the agent was known.
Compounds. The drugs and investigational agents: alrizomadlin (APG-115; NSC831270), pelcitoclax (APG-1252; NSC835773), dasminapant (APG-1387;NSC834197), TAK-243 (NSC785004), copanlisib (NSC809693), olaparib (NSC753686), talazoparib (NSC767125), cobimetinib (NSC 768068), eltanexor (KPT-8602, NSC 794443), abemaciclib (NSC 768073), sotorasib (NSC818433), adagrasib (NSC 831453), MRTX-1133 (NSC 836407), Iadademestat (ORY1001, NSC 806812), and RMC-4630 (NSC839698), were obtained from the NCI Developmental Therapeutics Program Chemical Repository. The FDA-approved anticancer drug set is available from the Developmental Therapeutics Program at https://dtp.cancer.gov/organization/dscb/obtaining/available plates.htm. […] The stock solutions were prepared in dimethyl sulfoxide (DMSO, Sigma-Aldrich, St. Louis, MO, cat. D2650) at 800-fold the tested concentration and stored at -70 degrees C prior to their use. All drugs and investigational agents were tested over a range starting from a high concentration at or near the clinical Cmax and decreasing in half-log increments. If the clinical Cmax for an agent had not been determined, the highest concentration tested was 10 microM.
The patient-derived cancer (PDC) cell lines include five colon adenocarcinomas: 186277-243-T-J2-PDC, 616215-338-R-J1-PDC, 439559-082-T-J2-PDC, 463943-066-T-J2-PDC, and 519858-162-T-J1-PDC; three pancreatic carcinomas: 323965-272-R-J2-PDC, 521955-158-R6-J3-PDC, and 521955-158-R2-J5-PDC; two uterine sarcomas: 327498-152-R-J2-PDC and 993429-296-R-J1-PDC; two rhabdomyosarcomas: 755483-174-R-J1-PDC and 772245-204-R-J1-PDC; two soft tissue sarcomas: 126254-015-R-J1-PDC and 494315-158-R-J1-PDC; two malignant fibrous histiocytomas: 317291-083-R-J1-PDC and 596521-263-R-J1-PDC; two breast carcinomas: 171881-019-R-J1-PDC and 885512-296-R-J2-PDC; and one ovarian carcinoma: 6556581-035-R-J-PDC were obtained from the NCI PDMR, (https://pdmr.cancer.gov). The established cell lines HSSY-2 synovial sarcoma (RRID:CVCL 8719), SYO-1 synovial sarcoma (RRID:CVCL_7146), MPNST malignant peripheral neural sheath tumor were obtained from the Sloan Kettering Institute. The following established cell lines were purchased from the American Type Culture Collection (ATCC, Manassas, VA), Sor the received from the NCI repository:, PANC-1 pancreatic carcinoma (CRL-1469, RRID:CVCL_0480), OVCAR-5 ovarian carcinoma (RRID:CVCL_1628), OVCAR-8 ovarian carcinoma (RRID:CVCL_1629), , MCF-7 breast carcinoma (CRL-12584, RRID:CVCL_0031), MDA-MB-231 breast carcinoma (CRL-12532, RRID:CVCL_0062), NCI-H1876 small cell lung carcinoma (CRL-5902, RRID:CVCL_1503), NCI-H510A small cell lung carcinoma (HTB-184, RRID:CVCL_1565), NCI-H1417 (CRL-5869, RRID:CVCL_1469), and NCI-H196 small cell lung carcinoma (CRL-5823, RRID:CVCL_1509). Dr. Peter Houghton (Greehey Children's Cancer Research Institute, University of Texas Health Science Center, San Antonio, TX) provided Rh-18 rhabdomyosarcoma (RRID:CVCL_1659). Pooled donor human umbilical vein endothelial cells (HUVEC, Lonza, cat. CC-2519) and human mesenchymal stem cells (hMSC, Lonza, cat. PT-2501) were purchased from Lonza (Walkersville, MD).
Cell Culture. […]

[1] = curve of first compound, second compound 0.1 µM
[2] = curve of first compound, second compound 0.316 µM
[3] = curve of first compound, second compound 1 µM
[4] = curve of first compound, second compound 3.16 µM
[5] = curve of first compound, second compound 10 µM

CNC(C)C(=O)NC1CN(S(=O)(=O)c2cccc(S(=O)(=O)N3CCC4CCC(C(=O)NC(c5ccccc5)c5ccccc5)N4C(=O)C(NC(=O)C(C)NC)C3)c2)CCC2CCC(C(=O)NC(c3ccccc3)c3ccccc3)N2C1=O (stereo not drawn)
viability, T/C (compound 0.00316 µM): 80.3% and 79.9% and 75.9% | IC50 (compound alone, run of 11/15/2022): > 1000 nM | IC50 (curve of compound): 21.6 nM and 33.4 nM

C=C(F)C(=O)N1CCN(c2nc(OCC3CCCN3C)nc3c2CCN(c2cccc4cccc(Cl)c24)C3)CC1CC#N (stereo not drawn) + Cc1c(S(C)(=O)=O)c(-c2cc(F)cc(N3CCN(c4ccc(NS(=O)(=O)c5ccc(NC(CCN6CCC(C(=O)OCCCP(=O)(O)O)CC6)CSc6ccccc6)c(S(=O)(=O)C(F)(F)F)c5)cc4)CC3)c2)c(-c2ccc(Cl)cc2)n1C(C)C
IC50 [1]: < 31.6 nM | IC50 [2]: < 31.6 nM | IC50 [3]: < 31.6 nM | IC50 [4]: < 31.6 nM | IC50 [5]: < 31.6 nM | viability, T/C (second compound 0.1 µM, first compound 0.0316 µM): 13.9% | viability, T/C (second compound 0.1 µM, first compound 0.1 µM): 14.1% | viability, T/C (second compound 0.1 µM, first compound 0.316 µM): 16.8% | viability, T/C (second compound 0.1 µM, first compound 1 µM): 18.4% | viability, T/C (second compound 0.1 µM, first compound 3.16 µM): 4.57% | viability, T/C (second compound 0.1 µM, first compound 10 µM): 0.19% | viability, T/C (second compound 0.316 µM, first compound 0.0316 µM): 6.98% | viability, T/C (second compound 0.316 µM, first compound 0.1 µM): 8.95% | viability, T/C (second compound 0.316 µM, first compound 0.316 µM): 10.2% | viability, T/C (second compound 0.316 µM, first compound 1 µM): 10.4% | viability, T/C (second compound 0.316 µM, first compound 3.16 µM): 1.87% | viability, T/C (second compound 0.316 µM, first compound 10 µM): 0.13% | viability, T/C (second compound 1 µM, first compound 0.0316 µM): 7.24% | viability, T/C (second compound 1 µM, first compound 0.1 µM): 8.76% | viability, T/C (second compound 1 µM, first compound 0.316 µM): 10.9% | viability, T/C (second compound 1 µM, first compound 1 µM): 8.02% | viability, T/C (second compound 1 µM, first compound 3.16 µM): 0.6% | viability, T/C (second compound 1 µM, first compound 10 µM): 0.14% | viability, T/C (second compound 3.16 µM, first compound 0.0316 µM): 7.34% | viability, T/C (second compound 3.16 µM, first compound 0.1 µM): 7.03% | viability, T/C (second compound 3.16 µM, first compound 0.316 µM): 8.15% | viability, T/C (second compound 3.16 µM, first compound 1 µM): 4.6% | viability, T/C (second compound 3.16 µM, first compound 3.16 µM): 0.19% | viability, T/C (second compound 3.16 µM, first compound 10 µM): 0.18% | viability, T/C (second compound 10 µM, first compound 0.0316 µM): 4.96% | viability, T/C (second compound 10 µM, first compound 0.1 µM): 5.5% | viability, T/C (second compound 10 µM, first compound 0.316 µM): 5.96% | viability, T/C (second compound 10 µM, first compound 1 µM): 4.82% | viability, T/C (second compound 10 µM, first compound 3.16 µM): 0.38% | viability, T/C (second compound 10 µM, first compound 10 µM): 0.23%

CCN1C(C(=O)NC23CCC(C(=O)O)(CC2)CC3)C(c2cccc(Cl)c2F)C2(C(=O)Nc3cc(Cl)ccc32)C12CCCCC2 (stereo not drawn) + Cc1c(S(C)(=O)=O)c(-c2cc(F)cc(N3CCN(c4ccc(NS(=O)(=O)c5ccc(NC(CCN6CCC(C(=O)OCCCP(=O)(O)O)CC6)CSc6ccccc6)c(S(=O)(=O)C(F)(F)F)c5)cc4)CC3)c2)c(-c2ccc(Cl)cc2)n1C(C)C
IC50 [1]: < 9.49 nM | IC50 [2]: < 9.49 nM | IC50 [3]: < 9.49 nM | IC50 [4]: < 9.49 nM | IC50 [5]: < 9.49 nM | viability, T/C (second compound 0.1 µM, first compound 0.00949 µM): 19% | viability, T/C (second compound 0.1 µM, first compound 0.03 µM): 21% | viability, T/C (second compound 0.1 µM, first compound 0.0949 µM): 10.3% | viability, T/C (second compound 0.1 µM, first compound 0.3 µM): 6.82% | viability, T/C (second compound 0.1 µM, first compound 0.949 µM): 7.29% | viability, T/C (second compound 0.1 µM, first compound 3 µM): 3.96% | viability, T/C (second compound 0.316 µM, first compound 0.00949 µM): 12% | viability, T/C (second compound 0.316 µM, first compound 0.03 µM): 16.4% | viability, T/C (second compound 0.316 µM, first compound 0.0949 µM): 7.76% | viability, T/C (second compound 0.316 µM, first compound 0.3 µM): 5.97% | viability, T/C (second compound 0.316 µM, first compound 0.949 µM): 4.04% | viability, T/C (second compound 0.316 µM, first compound 3 µM): 0.91% | viability, T/C (second compound 1 µM, first compound 0.00949 µM): 8.76% | viability, T/C (second compound 1 µM, first compound 0.03 µM): 8.85% | viability, T/C (second compound 1 µM, first compound 0.0949 µM): 5.21% | viability, T/C (second compound 1 µM, first compound 0.3 µM): 4.08% | viability, T/C (second compound 1 µM, first compound 0.949 µM): 1.55% | viability, T/C (second compound 1 µM, first compound 3 µM): 0.87% | viability, T/C (second compound 3.16 µM, first compound 0.00949 µM): 6.63% | viability, T/C (second compound 3.16 µM, first compound 0.03 µM): 5.76% | viability, T/C (second compound 3.16 µM, first compound 0.0949 µM): 4.28% | viability, T/C (second compound 3.16 µM, first compound 0.3 µM): 3.45% | viability, T/C (second compound 3.16 µM, first compound 0.949 µM): 0.93% | viability, T/C (second compound 3.16 µM, first compound 3 µM): 0.73% | viability, T/C (second compound 10 µM, first compound 0.00949 µM): 5.47% | viability, T/C (second compound 10 µM, first compound 0.03 µM): 3.7% | viability, T/C (second compound 10 µM, first compound 0.0949 µM): 2.69% | viability, T/C (second compound 10 µM, first compound 0.3 µM): 1.52% | viability, T/C (second compound 10 µM, first compound 0.949 µM): 0.64% | viability, T/C (second compound 10 µM, first compound 3 µM): 0.73%
